Tested on: 653999-131-R-J2-PDC complex spheroids, growth inhibition
Experiment: Anticancer human tumor 653999-131-R-J2-PDC patient-derived lung adenocarcinoma cell line growth inhibition [RAS]
Settings: for viability, T/C: stronger effect = lower value; active = viability on the fitted dose curve at most 10% of control; inactive = the rest
Summary of the method: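 Tumour cells grown as complex spheroids with HUVEC endothelial cells and mesenchymal stem cells, treated with RAS pathway inhibitor combinations. Each agent spans half-log steps from near clinical Cmax, or 10 microM where Cmax is unknown.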

[1] = curve of first compound, second compound 0.0316 µM
[2] = curve of first compound, second compound 0.1 µM
[3] = curve of first compound, second compound 0.316 µM
[4] = curve of first compound, second compound 1 µM
[5] = second compound 0.0316 µM, first compound 0.0316 µM
[6] = second compound 0.0316 µM, first compound 0.1 µM
[7] = second compound 0.0316 µM, first compound 0.316 µM
[8] = second compound 0.0316 µM, first compound 1 µM
[9] = second compound 0.0316 µM, first compound 3.16 µM
[10] = second compound 0.0316 µM, first compound 10 µM
[11] = second compound 0.1 µM, first compound 0.0316 µM
[12] = second compound 0.1 µM, first compound 0.1 µM
[13] = second compound 0.1 µM, first compound 0.316 µM
[14] = second compound 0.1 µM, first compound 1 µM
[15] = second compound 0.1 µM, first compound 3.16 µM
[16] = second compound 0.1 µM, first compound 10 µM
[17] = second compound 0.316 µM, first compound 0.0316 µM
[18] = second compound 0.316 µM, first compound 0.1 µM
[19] = second compound 0.316 µM, first compound 0.316 µM
[20] = second compound 0.316 µM, first compound 1 µM
[21] = second compound 0.316 µM, first compound 3.16 µM
[22] = second compound 0.316 µM, first compound 10 µM
[23] = second compound 1 µM, first compound 0.0316 µM
[24] = second compound 1 µM, first compound 0.1 µM
[25] = second compound 1 µM, first compound 0.316 µM
[26] = second compound 1 µM, first compound 1 µM
[27] = second compound 1 µM, first compound 3.16 µM
[28] = second compound 1 µM, first compound 10 µM
[29] = curve of first compound, second compound 0.00316 µM
[30] = curve of first compound, second compound 0.01 µM
[31] = second compound 0.00316 µM, first compound 0.0316 µM
[32] = second compound 0.00316 µM, first compound 0.1 µM
[33] = second compound 0.00316 µM, first compound 0.316 µM
[34] = second compound 0.00316 µM, first compound 1 µM
[35] = second compound 0.01 µM, first compound 0.0316 µM
[36] = second compound 0.01 µM, first compound 0.1 µM
[37] = second compound 0.01 µM, first compound 0.316 µM
[38] = second compound 0.01 µM, first compound 1 µM
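Note: spheroids exposed to the agents for seven days before the readout.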

CC1(O)CCCC1n1c(=O)c(C(F)F)cc2cnc(NC3CCN(S(C)(=O)=O)CC3)nc21 (stereo unspecified) + C#Cc1c(F)ccc2cc(O)cc(-c3ncc4c(N5CC6CCC(C5)N6)nc(OCC56CCCN5CC(F)C6)nc4c3F)c12
< 31.6 nM: IC50 [3] | IC50 [4] | IC50 (curve of first compound, second compound 3.16 µM) | IC50 (curve of first compound, second compound 10 µM)
inactive: viability, T/C [5] 71.3% | viability, T/C [6] 54.8% | viability, T/C [7] 62.4% | viability, T/C [8] 57.2% | viability, T/C [9] 63.1% | viability, T/C [10] 29.6% | viability, T/C [11] 69.4% | viability, T/C [12] 49.9% | viability, T/C [13] 51.2% | viability, T/C [14] 52.1% | viability, T/C [15] 58.4% | viability, T/C [16] 24.7% | viability, T/C [17] 49.4% | viability, T/C [18] 42.7% | viability, T/C [19] 42.6% | viability, T/C [20] 45.5% | viability, T/C [21] 49.2% | viability, T/C [22] 27.7% | viability, T/C [23] 40.5% | viability, T/C [24] 31.4% | viability, T/C [25] 32.7% | viability, T/C [26] 34.3% | viability, T/C [27] 34.4% | viability, T/C [28] 24.5% | viability, T/C (second compound 3.16 µM, first compound 0.0316 µM) 29.6% | viability, T/C (second compound 3.16 µM, first compound 0.1 µM) 25.5% | viability, T/C (second compound 3.16 µM, first compound 0.316 µM) 21.6% | viability, T/C (second compound 3.16 µM, first compound 1 µM) 23% | viability, T/C (second compound 3.16 µM, first compound 3.16 µM) 31.4% | viability, T/C (second compound 3.16 µM, first compound 10 µM) 20.7% | viability, T/C (second compound 10 µM, first compound 0.0316 µM) 23.2% | viability, T/C (second compound 10 µM, first compound 0.1 µM) 17.1% | viability, T/C (second compound 10 µM, first compound 0.316 µM) 20.6% | viability, T/C (second compound 10 µM, first compound 1 µM) 19.7% | viability, T/C (second compound 10 µM, first compound 3.16 µM) 25.6% | viability, T/C (second compound 10 µM, first compound 10 µM) 22.7%
4780 nM: IC50 [1]
3960 nM: IC50 [2]

CC(Nc1ccc2c(c1)OCCn1cc(N3C(=O)OCC3C(F)F)nc1-2)C(N)=O (stereo unspecified) + C=CC(=O)N1CCN(c2nc(OCC3CCCN3C)nc3c(F)c(-c4nc(N)cc(C)c4C(F)(F)F)c(Cl)cc23)C(C)C1
636 nM: IC50 [1]
1160 nM: IC50 [2]
536 nM: IC50 [3]
645 nM: IC50 [29]
717 nM: IC50 [30]
inactive: viability, T/C [31] 111% | viability, T/C [32] 75.6% | viability, T/C [33] 55.9% | viability, T/C [34] 51.5% | viability, T/C (second compound 0.00316 µM, first compound 3.16 µM) 36.5% | viability, T/C (second compound 0.00316 µM, first compound 10 µM) 25.3% | viability, T/C [35] 104% | viability, T/C [36] 83.6% | viability, T/C [37] 61.1% | viability, T/C [38] 42.2% | viability, T/C (second compound 0.01 µM, first compound 3.16 µM) 40.4% | viability, T/C (second compound 0.01 µM, first compound 10 µM) 26.5% | viability, T/C [5] 96.5% | viability, T/C [6] 70.1% | viability, T/C [7] 58.9% | viability, T/C [8] 44.9% | viability, T/C [9] 38.5% | viability, T/C [10] 26% | viability, T/C [11] 85.6% | viability, T/C [12] 66.3% | viability, T/C [13] 68.8% | viability, T/C [14] 50.7% | viability, T/C [15] 40% | viability, T/C [16] 21.6% | viability, T/C [17] 85.9% | viability, T/C [18] 78.1% | viability, T/C [19] 55.1% | viability, T/C [20] 40.9% | viability, T/C [21] 37.5% | viability, T/C [22] 26.9% | viability, T/C [23] 87.9% | viability, T/C [24] 67.6% | viability, T/C [25] 60.5% | viability, T/C [26] 37.9% | viability, T/C [27] 41.3% | viability, T/C [28] 28.7%
571 nM: IC50 [4]

C=CC(=O)Nc1cc(Nc2nccc(-c3cn(C)c4ccccc34)n2)c(OC)cc1N(C)CCN(C)C + C=CC(=O)N1CCN(c2nc(OCC3CCCN3C)nc3c(F)c(-c4nc(N)cc(C)c4C(F)(F)F)c(Cl)cc23)C(C)C1
inactive: viability, T/C (second compound 0.00316 µM, first compound 0.00316 µM) 104% | viability, T/C (second compound 0.00316 µM, first compound 0.01 µM) 90.8% | viability, T/C [31] 95.3% | viability, T/C [32] 94.9% | viability, T/C [33] 70.3% | viability, T/C [34] 46.3% | viability, T/C (second compound 0.01 µM, first compound 0.00316 µM) 94.1% | viability, T/C (second compound 0.01 µM, first compound 0.01 µM) 83.7% | viability, T/C [35] 79.5% | viability, T/C [36] 100% | viability, T/C [37] 57.9% | viability, T/C [38] 56% | viability, T/C (second compound 0.0316 µM, first compound 0.00316 µM) 113% | viability, T/C (second compound 0.0316 µM, first compound 0.01 µM) 100% | viability, T/C [5] 95.3% | viability, T/C [6] 69.6% | viability, T/C [7] 59.2% | viability, T/C [8] 59.4% | viability, T/C (second compound 0.1 µM, first compound 0.00316 µM) 108% | viability, T/C (second compound 0.1 µM, first compound 0.01 µM) 86.8% | viability, T/C [11] 89.5% | viability, T/C [12] 77.5% | viability, T/C [13] 69.6% | viability, T/C [14] 52.7% | viability, T/C (second compound 0.316 µM, first compound 0.00316 µM) 100% | viability, T/C (second compound 0.316 µM, first compound 0.01 µM) 107% | viability, T/C [17] 98.8% | viability, T/C [18] 70.8% | viability, T/C [19] 67.7% | viability, T/C [20] 46% | viability, T/C (second compound 1 µM, first compound 0.00316 µM) 105% | viability, T/C (second compound 1 µM, first compound 0.01 µM) 104% | viability, T/C [23] 94.2% | viability, T/C [24] 67% | viability, T/C [25] 58.6% | viability, T/C [26] 55.9%
> 1000 nM: IC50 [30] | IC50 [1] | IC50 [2] | IC50 [4]
838 nM: IC50 [29]
894 nM: IC50 [3]

CCn1c(-c2cccnc2C(C)OC)c2c3cc(ccc31)N1CCOC(CC(NC(=O)C(C(C)C)N(C)C(=O)C3(F)CCN(C(=O)C#CC(C)(C)N(C)C)CC3)C(=O)N3CCCC(N3)C(=O)OCC(C)(C)C2)C1 (stereo unspecified)
> 300 nM: IC50 (compound alone, run of 08/20/2024)
inactive: viability, T/C (compound 0.003 µM) 95.1% [middle of 8 runs] | viability, T/C (compound 0.00949 µM) 99.5% [middle of 8 runs] | viability, T/C (compound 0.03 µM) 104% [middle of 8 runs] | viability, T/C (compound 0.0949 µM) 99.9% [middle of 8 runs] | viability, T/C (compound 0.3 µM) 107% [middle of 8 runs]

C=CC(=O)N1CCN(c2nc(OCC3CCCN3C)nc3c(F)c(-c4nc(N)cc(C)c4C(F)(F)F)c(Cl)cc23)C(C)C1 (stereo unspecified)
inactive: viability, T/C (compound 0.0316 µM) 107% [middle of 12 runs] | viability, T/C (compound 0.316 µM) 107% [middle of 12 runs]
> 1000 nM: IC50 (compound alone, run of 09/09/2024) | IC50 (curve of compound)
